For the first assay, the target named is human APJ receptor (Homo sapiens (Human), UniProt P35414). Put plainly: biochemical. Particulars: [35S]GTPγS binding, membranes from CHO cells stably expressing human APJ receptor; read-out: Activity hAPJ SPA EC50 IP. The format is biochemical. The essentials: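 [35S]GTPγS binding to membranes from CHO cells stably expressing human APJ, captured on WGA PS beads (5 μg/well). Buffer: 20 mM HEPES pH 7.5, 5 mM MgCl2, 100 mM NaCl, 0.1% BSA, with 3 μM GDP and 0.1 nM [35S]GTPγS final; compounds tested as 22-point 2-fold dilutions.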
Sequence of human APJ receptor (P35414 whole entry): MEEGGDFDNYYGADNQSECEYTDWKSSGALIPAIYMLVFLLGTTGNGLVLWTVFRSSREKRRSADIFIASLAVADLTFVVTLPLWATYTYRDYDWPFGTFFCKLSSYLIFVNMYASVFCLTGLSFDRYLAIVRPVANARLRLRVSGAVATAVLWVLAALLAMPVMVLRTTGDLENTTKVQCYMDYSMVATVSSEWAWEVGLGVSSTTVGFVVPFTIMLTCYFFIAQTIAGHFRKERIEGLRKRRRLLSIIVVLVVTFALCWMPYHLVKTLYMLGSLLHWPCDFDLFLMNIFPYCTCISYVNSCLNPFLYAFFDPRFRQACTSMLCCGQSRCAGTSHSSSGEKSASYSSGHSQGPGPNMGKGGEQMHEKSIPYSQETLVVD
Turning to `COc1ccc(Cl)c(-n2c(COC(F)F)nnc2NS(=O)(=O)[C@@H](C)[C@H](OC)c2ncc(Cl)cn2)c1` [Example 160.0], the EC50 was determined as 21 nM.
In the case of `CC[C@@H](OC)c1nnc(NS(=O)(=O)[C@@H](C)[C@H](C)c2ncc(Cl)cn2)n1-c1c(OC)ncnc1OC` (single isomer, unassigned) [Example 7.0, (2S,3R)-3-(5-chloro-2-pyrimidinyl)-N-(4-(4,6-dimethoxy-5-pyrimidinyl)-5-((1R)-1-methoxypropyl)-4H-1,2,4-triazol-3-yl)-2-butanesulfonamide or (2S,3R)-3-(5-chloro-2-pyrimidinyl)-N-(4-(4,6-dimethoxy-5-pyrimidinyl)-5-((1S)-1-methoxypropyl)-4H-1,2,4-triazol-3-yl)-2-butanesulfonamide], the EC50 came to 360 nM.
The same measure, in the same setting: as for `COc1cccc(OC)c1-n1c(NS(=O)(=O)[C@@H](C)[C@H](C)c2ncc(C)cn2)nnc1-c1cccc2c1CC(=O)N2` [Example 16.0, (2S,3R)-N-(4-(2,6-dimethoxyphenyl)-5-(2-oxoindolin-4-yl)-4H-1,2,4-triazol-3-yl)-3-(5-methylpyrimidin-2-yl)butane-2-sulfonamide], the figure is 120 nM.
As to `COc1cccc(OC)c1-n1c(NS(=O)(=O)[C@@H](C)[C@H](C)c2ncc(C)cn2)nnc1-c1cccc2c1CC(=O)N2` [Example 17.0, (2S,3R)-N-(4-(2,6-dimethoxyphenyl)-5-(2-oxoindolin-4-yl)-4H-1,2,4-triazol-3-yl)-3-(5-methylpyrimidin-2-yl)butane-2-sulfonamide], the concentration giving a half-maximal response (EC50) turned out to be 350 nM.
Consider `COCc1nnc(NS(=O)(=O)[C@@H](C)[C@@H](OC(C)C)c2ccc(C)cn2)n1-c1c(OC)cccc1OC` [Example 155.0], for which the EC50 was 12 nM.
Consider `COCc1nnc(NS(=O)(=O)[C@@H](C)[C@H](C)c2ncc(Cl)cn2)n1-c1c(OC)ncnc1OC` [Example 11.0, (2S,3R)-3-(5-chloro-2-pyrimidinyl)-N-(4-(4,6-dimethoxy-5-pyrimidinyl)-5-(methoxymethyl)-4H-1,2,4-triazol-3-yl)-2-butanesulfonamide], for which the EC50 was 88 nM.
Turning to `COCc1nnc(NS(=O)(=O)[C@@H](C)[C@H](OC)c2ncc(Cl)cn2)n1-c1ccccc1OC` [Example 132.0], the EC50 is 11 nM.
Turning to `COc1ncnc(OC)c1-n1c(COC(C)C)nnc1NS(=O)(=O)[C@@H](C)[C@H](OC)c1ncc(Cl)cn1` [Example 79.0, (1R,2S)-1-(5-chloropyrimidin-2-yl)-N-(4-(4.6-dimethoxypyrimidin-5-yl)-5-(isopropoxymethyl)-4H-1,2,4-triazol-3-yl)-1-methoxypropane-2-sulfonamide], the concentration for a half-maximal effect (EC50) was found to be 2.9 nM.
Same read-out and setting: as for `COc1cccc(OC)c1-n1c(Cc2ccccc2)nnc1NS(=O)(=O)[C@@H](C)[C@H](OC)c1ncc(C)cn1` [Example 54.0], the figure is 300 nM.

The same assay, now with this note: read-out: Activity hAPJ SPA EC50 IP.
On to `COCc1nnc(NS(=O)(=O)[C@@H](C)[C@H](C)c2ncc(C)cn2)n1-c1c(OC)cccc1OC` [Example 61.0, (2S,3R)-N-(4-(2,6-dimethoxyphenyl)-5-(methoxymethyl)-4H-1.2.4-triazol-3-yl)-3-(5-methylpyrimidin-2-yl)butane-2-sulfonamide], for which the EC50 turned out to be 6.7 nM.
For `COCc1nnc(NS(=O)(=O)[C@@H](C)[C@H](C)c2ncc(Cl)cn2)n1-c1c(OC)cccc1OC` [Example 10.0, (2S,3R)-3-(5-chloro-2-pyrimidinyl)-N-(4-(2,6-dimethoxyphenyl)-5-(methoxymethyl)-4H-1,2,4-triazol-3-yl)-2-butanesulfonamide], the EC50 amounted to 15 nM.
For `COCc1nnc(NS(=O)(=O)[C@@H](C)[C@H](OC)c2ncc(Cl)cn2)n1-c1c(OC)cccc1OC` [Example 12.0, (1R,2S)-1-(5-chloro-2-pyrimidinyl)-N-(4-(2,6-dimethoxyphenyl)-5-(methoxymethyl)-4H-1,2,4-triazol-3-yl)-1-methoxy-2-propanesulfonamide], the EC50 stood at 4.8 nM.

The EC50 is the concentration needed to bring the measured effect to its halfway point.
